PMC7064328 (Environmental Health Perspectives, 2020)

Test system: placenta
Test: Placental histopathology
Type: in vivo, mouse (CD-1)
Settings: for Lowest dose tested resulting in adverse placental pathology: this study
Protocol: Dam livers, kidneys, and placentas were trimmed and embedded by the NIEHS Mouse Embryo Phenotyping Core. Tissues collected at necropsy were fixed in 4% PFA for 72 h and paraffin embedded, and 5-μm sections were prepared and stained with hematoxylin and eosin (H&E). Pathology was evaluated and a pathology review conducted by S.A.E. Diplomate American College of Veterinary Pathologists (DACVP). Pathology reviews were conducted as an informed approach analysis [e.g., nonblinded analysis; see Sills et al. ([2019])]. Select tissue slides were scanned using the AT2 Scanner (Aperio). Images were then captured for publication using the ImageScope software; version 12.3.0.5056 (Aperio). Serum and urine obtained from dams in Block 2 were analyzed using the AU480 clinical chemistry analyzer (Beckman Coulter Inc.). Reagents and calibration standards used to measure alkaline phosphatase (ALP), alanine aminotransferase (ALT), aspartate aminotransferase (AST), blood urea nitrogen (BUN), serum creatinine, urine creatinine, glucose (Glu), total protein (TP), triglyceride (Trig), high-density lipoprotein (HDL), cholesterol (Chol), and albumin (ALB) were purchased from Beckman Coulter Inc. Reagents for sorbitol dehydrogenase (SDH), total bile acid (TBA), and micro-TP were purchased from Sekisui Diagnostics. The reagent used to measure low-density lipoprotein (LDL) was purchased form Diazyme Laboratories.
Histopathological lesions of evaluated placenta were evaluated using two statistical approaches. The first approach assumed the absence of litter effects and considered each placenta evaluated within a treatment group to be a totally independent observation, regardless of its litter of origin. […] The second approach considered the litter as the biological unit and compared the relative incidence of placental lesions [e.g., percent within normal limits (WNL)] to adjust for differences in the total number of observations across litters within and between treatment groups. […] Both approaches were subjected to simultaneous tests for general linear hypotheses to correct for multiple comparisons using Tukey contrasts in the package multcomp ([Hothorn et al. 2009]).

SMILES: N.O=C(O)C(F)(OC(F)(F)C(F)(F)C(F)(F)F)C(F)(F)F (centres unmarked) [GenX, ammonium 2,3,3,3-tetrafluoro-2-(heptafluoropropoxy)propanoate]
- Early fibrin clot: No. (E11.5, 2 mg/kg/d): 1
- Labyrinth atrophy: % (E11.5, 2 mg/kg/d): 0%
- Labyrinth atrophy: No. (E11.5, 2 mg/kg/d): 0
- Labyrinth congestion: % (E11.5, 2 mg/kg/d): 0%
- Labyrinth congestion: No. (E11.5, 2 mg/kg/d): 0
- Labyrinth necrosis: % (E11.5, 2 mg/kg/d): 0%
- Labyrinth necrosis: No. (E11.5, 2 mg/kg/d): 0
- Mean WNL per litter (%) (E11.5, 2 mg/kg/d): 95.6%
- Mean WNL ± SD per litter (E11.5, 2 mg/kg/d): 8.2 ± 2.8
- Mean abnormal per litter (%) (E11.5, 2 mg/kg/d): 4.4%
- Mean abnormal ± SD per litter (E11.5, 2 mg/kg/d): 0.4 ± 0.9
- Other placental lesions: % (E11.5, 2 mg/kg/d): 2.3%
- Other placental lesions: No. (E11.5, 2 mg/kg/d): 1
- Placental nodule: % (E11.5, 2 mg/kg/d): 0%
- Placental nodule: No. (E11.5, 2 mg/kg/d): 0
- Placentas WNL: % (E11.5, 2 mg/kg/d): 95.3%
- Placentas WNL: No. (E11.5, 2 mg/kg/d): 41
- Placentas abnormal: % (E11.5, 2 mg/kg/d): 4.7%
- Placentas abnormal: No. (E11.5, 2 mg/kg/d): 2
- Early fibrin clot: % (E11.5, 10 mg/kg/d): 0%
- Early fibrin clot: No. (E11.5, 10 mg/kg/d): 0
- Labyrinth atrophy: % (E11.5, 10 mg/kg/d): 0%
- Labyrinth atrophy: No. (E11.5, 10 mg/kg/d): 0
- Labyrinth congestion: % (E11.5, 10 mg/kg/d): 0%
- Labyrinth congestion: No. (E11.5, 10 mg/kg/d): 0
- Labyrinth necrosis: % (E11.5, 10 mg/kg/d): 0%
- Labyrinth necrosis: No. (E11.5, 10 mg/kg/d): 0
- Mean WNL per litter (%) (E11.5, 10 mg/kg/d): 97.1%
- Mean WNL ± SD per litter (E11.5, 10 mg/kg/d): 6.0 ± 3.1
- Mean abnormal per litter (%) (E11.5, 10 mg/kg/d): 0%
- Mean abnormal ± SD per litter (E11.5, 10 mg/kg/d): 0 ± 0.0
- Other placental lesions: % (E11.5, 10 mg/kg/d): 0%
- Other placental lesions: No. (E11.5, 10 mg/kg/d): 0
- Placental nodule: % (E11.5, 10 mg/kg/d): 0%
- Placental nodule: No. (E11.5, 10 mg/kg/d): 0
- Placentas WNL: % (E11.5, 10 mg/kg/d): 100%
- Placentas WNL: No. (E11.5, 10 mg/kg/d): 30
- Placentas abnormal: % (E11.5, 10 mg/kg/d): 0.0%
- Placentas abnormal: No. (E11.5, 10 mg/kg/d): 0
- Early fibrin clot: % (E17.5, 2 mg/kg/d): 3.2%
- Early fibrin clot: No. (E17.5, 2 mg/kg/d): 1
- Labyrinth atrophy: % (E17.5, 2 mg/kg/d): 48.4%
- Labyrinth atrophy: No. (E17.5, 2 mg/kg/d): 15
- Labyrinth congestion: % (E17.5, 2 mg/kg/d): 3.2%
- Labyrinth congestion: No. (E17.5, 2 mg/kg/d): 1
- Labyrinth necrosis: % (E17.5, 2 mg/kg/d): 0%
- Labyrinth necrosis: No. (E17.5, 2 mg/kg/d): 0
- Mean WNL per litter (%) (E17.5, 2 mg/kg/d): 51.7%
- Mean WNL ± SD per litter (E17.5, 2 mg/kg/d): 2.6 ± 2.8
- Mean abnormal per litter (%) (E17.5, 2 mg/kg/d): 48.3%
- Mean abnormal ± SD per litter (E17.5, 2 mg/kg/d): 3.6 ± 3.6
- Other placental lesions: % (E17.5, 2 mg/kg/d): 0%
- Other placental lesions: No. (E17.5, 2 mg/kg/d): 0
- Placental nodule: % (E17.5, 2 mg/kg/d): 3.2%
- Placental nodule: No. (E17.5, 2 mg/kg/d): 1
- Placentas WNL: % (E17.5, 2 mg/kg/d): 41.9%
- Placentas WNL: No. (E17.5, 2 mg/kg/d): 13
- Placentas abnormal: % (E17.5, 2 mg/kg/d): 58.1%
- Placentas abnormal: No. (E17.5, 2 mg/kg/d): 18
- Early fibrin clot: % (E17.5, 10 mg/kg/d): 11.4%
- Early fibrin clot: No. (E17.5, 10 mg/kg/d): 4
- Labyrinth atrophy: % (E17.5, 10 mg/kg/d): 45.7%
- Labyrinth atrophy: No. (E17.5, 10 mg/kg/d): 16
- Labyrinth congestion: % (E17.5, 10 mg/kg/d): 22.9%
- Labyrinth congestion: No. (E17.5, 10 mg/kg/d): 8
- Labyrinth necrosis: % (E17.5, 10 mg/kg/d): 2.9%
- Labyrinth necrosis: No. (E17.5, 10 mg/kg/d): 1
- Mean WNL per litter (%) (E17.5, 10 mg/kg/d): 12.0%
- Mean WNL ± SD per litter (E17.5, 10 mg/kg/d): 1.2 ± 2.7
- Mean abnormal per litter (%) (E17.5, 10 mg/kg/d): 88.0%
- Mean abnormal ± SD per litter (E17.5, 10 mg/kg/d): 5.8 ± 3.0
- Other placental lesions: % (E17.5, 10 mg/kg/d): 0%
- Other placental lesions: No. (E17.5, 10 mg/kg/d): 0
- Placental nodule: % (E17.5, 10 mg/kg/d): 0%
- Placental nodule: No. (E17.5, 10 mg/kg/d): 0
- Placentas WNL: % (E17.5, 10 mg/kg/d): 17.1%
- Placentas WNL: No. (E17.5, 10 mg/kg/d): 6
- Placentas abnormal: % (E17.5, 10 mg/kg/d): 82.9%
- Placentas abnormal: No. (E17.5, 10 mg/kg/d): 29
- Lowest dose tested resulting in adverse placental pathology: 2 mg/kg/d

SMILES: O=C(O)C(F)(F)C(F)(F)C(F)(F)C(F)(F)C(F)(F)C(F)(F)C(F)(F)F [PFOA, Perfluorooctanoic acid]
- Early fibrin clot: % (E11.5, 1 mg/kg/d): 0%
- Early fibrin clot: No. (E11.5, 1 mg/kg/d): 0
- Labyrinth atrophy: % (E11.5, 1 mg/kg/d): 0%
- Labyrinth atrophy: No. (E11.5, 1 mg/kg/d): 0
- Labyrinth congestion: % (E11.5, 1 mg/kg/d): 0%
- Labyrinth congestion: No. (E11.5, 1 mg/kg/d): 0
- Labyrinth necrosis: % (E11.5, 1 mg/kg/d): 0%
- Labyrinth necrosis: No. (E11.5, 1 mg/kg/d): 0
- Mean WNL per litter (%) (E11.5, 1 mg/kg/d): 98.0%
- Mean WNL ± SD per litter (E11.5, 1 mg/kg/d): 6.4 ± 1.9
- Mean abnormal per litter (%) (E11.5, 1 mg/kg/d): 2.0%
- Mean abnormal ± SD per litter (E11.5, 1 mg/kg/d): 0.2 ± 0.4
- Other placental lesions: % (E11.5, 1 mg/kg/d): 3.0%
- Other placental lesions: No. (E11.5, 1 mg/kg/d): 1
- Placental nodule: % (E11.5, 1 mg/kg/d): 0%
- Placental nodule: No. (E11.5, 1 mg/kg/d): 0
- Placentas WNL: % (E11.5, 1 mg/kg/d): 97.0%
- Placentas WNL: No. (E11.5, 1 mg/kg/d): 32
- Placentas abnormal: % (E11.5, 1 mg/kg/d): 3.0%
- Placentas abnormal: No. (E11.5, 1 mg/kg/d): 4
- Early fibrin clot: % (E11.5, 5 mg/kg/d): 0%
- Early fibrin clot: No. (E11.5, 5 mg/kg/d): 0
- Labyrinth atrophy: % (E11.5, 5 mg/kg/d): 8.3%
- Labyrinth atrophy: No. (E11.5, 5 mg/kg/d): 3
- Labyrinth congestion: % (E11.5, 5 mg/kg/d): 0%
- Labyrinth congestion: No. (E11.5, 5 mg/kg/d): 0
- Labyrinth necrosis: % (E11.5, 5 mg/kg/d): 2.7%
- Labyrinth necrosis: No. (E11.5, 5 mg/kg/d): 1
- Mean WNL per litter (%) (E11.5, 5 mg/kg/d): 88.3%
- Mean WNL ± SD per litter (E11.5, 5 mg/kg/d): 6.4 ± 1.7
- Mean abnormal per litter (%) (E11.5, 5 mg/kg/d): 11.7%
- Mean abnormal ± SD per litter (E11.5, 5 mg/kg/d): 1.0 ± 1.4
- Other placental lesions: % (E11.5, 5 mg/kg/d): 0%
- Other placental lesions: No. (E11.5, 5 mg/kg/d): 0
- Placental nodule: % (E11.5, 5 mg/kg/d): 0%
- Placental nodule: No. (E11.5, 5 mg/kg/d): 0
- Placentas WNL: % (E11.5, 5 mg/kg/d): 88.9%
- Placentas WNL: No. (E11.5, 5 mg/kg/d): 32
- Placentas abnormal: % (E11.5, 5 mg/kg/d): 11.1%
- Placentas abnormal: No. (E11.5, 5 mg/kg/d): 4
- Early fibrin clot: % (E17.5, 1 mg/kg/d): 0%
- Early fibrin clot: No. (E17.5, 1 mg/kg/d): 0
- Labyrinth atrophy: % (E17.5, 1 mg/kg/d): 0%
- Labyrinth atrophy: No. (E17.5, 1 mg/kg/d): 0
- Labyrinth congestion: % (E17.5, 1 mg/kg/d): 0%
- Labyrinth congestion: No. (E17.5, 1 mg/kg/d): 0
- Labyrinth necrosis: % (E17.5, 1 mg/kg/d): 3.1%
- Labyrinth necrosis: No. (E17.5, 1 mg/kg/d): 1
- Mean WNL per litter (%) (E17.5, 1 mg/kg/d): 91.4%
- Mean WNL ± SD per litter (E17.5, 1 mg/kg/d): 5.8 ± 1.3
- Mean abnormal per litter (%) (E17.5, 1 mg/kg/d): 8.6%
- Mean abnormal ± SD per litter (E17.5, 1 mg/kg/d): 0.6 ± 0.9
- Other placental lesions: % (E17.5, 1 mg/kg/d): 0%
- Other placental lesions: No. (E17.5, 1 mg/kg/d): 0
- Placental nodule: % (E17.5, 1 mg/kg/d): 6.3%
- Placental nodule: No. (E17.5, 1 mg/kg/d): 2
- Placentas WNL: % (E17.5, 1 mg/kg/d): 90.6%
- Placentas WNL: No. (E17.5, 1 mg/kg/d): 29
- Placentas abnormal: % (E17.5, 1 mg/kg/d): 9.4%
- Placentas abnormal: No. (E17.5, 1 mg/kg/d): 3
- Early fibrin clot: % (E17.5, 5 mg/kg/d): 2.5%
- Early fibrin clot: No. (E17.5, 5 mg/kg/d): 1
- Labyrinth atrophy: % (E17.5, 5 mg/kg/d): 7.5%
- Labyrinth atrophy: No. (E17.5, 5 mg/kg/d): 3
- Labyrinth congestion: % (E17.5, 5 mg/kg/d): 57.5%
- Labyrinth congestion: No. (E17.5, 5 mg/kg/d): 23
- Labyrinth necrosis: % (E17.5, 5 mg/kg/d): 0%
- Labyrinth necrosis: No. (E17.5, 5 mg/kg/d): 0
- Mean WNL per litter (%) (E17.5, 5 mg/kg/d): 38.1%
- Mean WNL ± SD per litter (E17.5, 5 mg/kg/d): 2.2 ± 2.7
- Mean abnormal per litter (%) (E17.5, 5 mg/kg/d): 61.9%
- Mean abnormal ± SD per litter (E17.5, 5 mg/kg/d): 4.5 ± 3.8
- Other placental lesions: % (E17.5, 5 mg/kg/d): 0%
- Other placental lesions: No. (E17.5, 5 mg/kg/d): 0
- Placental nodule: % (E17.5, 5 mg/kg/d): 0%
- Placental nodule: No. (E17.5, 5 mg/kg/d): 0
- Placentas WNL: % (E17.5, 5 mg/kg/d): 32.5%
- Placentas WNL: No. (E17.5, 5 mg/kg/d): 13
- Placentas abnormal: % (E17.5, 5 mg/kg/d): 67.5%
- Placentas abnormal: No. (E17.5, 5 mg/kg/d): 27
- Lowest dose tested resulting in adverse placental pathology: 5 mg/kg/d
